Source: ChEMBL document CHEMBL3351333, “Structural analysis of a novel small molecule ligand bound to the CXCL12 chemokine” (J Med Chem, 2014)

Molecular target: Stromal cell-derived factor 1 (Homo sapiens) (UniProt P48061)
Experiment: Binding affinity to CXCL12 in human THP1 cells assessed as inhibition of CXCL12-induced cell migration at 25 uM incubated for 2 hrs by flow cytometry based chemotaxis assay
Settings: THP-1

Chain of Stromal cell-derived factor 1 (Homo sapiens) (P48061 whole entry): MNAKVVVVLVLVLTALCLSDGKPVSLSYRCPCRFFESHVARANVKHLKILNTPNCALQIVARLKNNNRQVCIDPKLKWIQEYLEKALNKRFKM

Compound	inhibition
O=C(NCCc1ccccc1)Nc1ccc(-c2nnn[nH]2)cc1	40%
O=C(Nc1ccccc1)Nc1ccc(-c2nnn[nH]2)cc1	20%
